Results on 1 compound are retold here after patent publication US7666660B2, “Method for mixing inside a capillary and devices for achieving same” (priority 2005, dated 2010).

This test addresses β-galactosidase (β-Gal) (Escherichia coli, UniProt P00722). To be noted: substrate of β-galactosidase, components mixed in a vial, 35 min incubation, 25° C., pH 7.2 phosphate buffer with 1 mM MgCl2, Michaelis-Menten equation.

Chain of β-galactosidase (β-Gal) (P00722 2-1024): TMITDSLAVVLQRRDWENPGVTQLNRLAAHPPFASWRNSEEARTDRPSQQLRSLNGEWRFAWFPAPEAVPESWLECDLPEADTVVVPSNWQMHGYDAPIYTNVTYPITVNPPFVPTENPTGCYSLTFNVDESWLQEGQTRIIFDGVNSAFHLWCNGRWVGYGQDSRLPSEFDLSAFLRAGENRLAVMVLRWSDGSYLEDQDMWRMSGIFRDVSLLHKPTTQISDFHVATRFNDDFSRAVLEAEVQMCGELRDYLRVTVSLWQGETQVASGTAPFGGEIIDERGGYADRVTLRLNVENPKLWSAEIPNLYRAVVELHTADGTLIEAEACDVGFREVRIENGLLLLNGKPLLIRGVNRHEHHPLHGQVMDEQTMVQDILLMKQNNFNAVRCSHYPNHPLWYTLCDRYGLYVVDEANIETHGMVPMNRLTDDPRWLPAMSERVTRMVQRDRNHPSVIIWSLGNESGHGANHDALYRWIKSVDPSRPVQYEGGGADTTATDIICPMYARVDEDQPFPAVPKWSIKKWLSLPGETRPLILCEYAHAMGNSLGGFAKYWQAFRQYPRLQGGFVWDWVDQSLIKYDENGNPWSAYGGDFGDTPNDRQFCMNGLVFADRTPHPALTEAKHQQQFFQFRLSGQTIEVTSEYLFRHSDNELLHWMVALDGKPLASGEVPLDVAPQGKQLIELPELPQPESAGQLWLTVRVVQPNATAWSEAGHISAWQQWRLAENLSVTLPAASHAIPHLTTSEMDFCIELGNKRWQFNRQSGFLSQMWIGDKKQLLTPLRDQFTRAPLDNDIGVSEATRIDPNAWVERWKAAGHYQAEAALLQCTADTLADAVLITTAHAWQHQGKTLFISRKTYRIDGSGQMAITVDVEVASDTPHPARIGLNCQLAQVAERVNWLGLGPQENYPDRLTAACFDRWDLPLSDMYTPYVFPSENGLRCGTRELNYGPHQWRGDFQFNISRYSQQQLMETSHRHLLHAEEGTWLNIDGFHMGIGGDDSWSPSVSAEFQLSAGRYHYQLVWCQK
Method: β-galactosidase (β-Gal) (isolated from E. coli), fluorescein mono-β-D-galactopyranoside (FMG), and fluorescein sodium salt were purchased from Sigma-Aldrich (Oakville, ON, Canada). All other chemicals were from Sigma-Aldrich, Caledon, or BDH (Toronto, ON, Canada), and were of analytical grade. Stock solutions of 4.4 mM FMG and 5 nM β-Gal were prepared with 10 mM phosphate (pH 7.2) buffer containing 1 mM MgCl2, and stored at −80° C. The 10 nM phosphate (pH 7.2) buffer containing 1 mM MgCl2 was also used for enzyme reactions, and for capillary electrophoresis as a run buffer. […]
All capillary electrophoresis (CE) experiments were carried out with a P/ACE MDQ instrument equipped with a laser-induced fluorescent (LIF) detector (Beckman-Coulter; Fullerton Calif.). Fluorescence was excited by a 488-nm line of an argon-ion laser (5 mW). […]
6 μL of 1 μM FMG, 3 μL of 1 nM β-Gal, and 9 μL of 10 mM phosphate buffer containing 1 mM MgCl2 were mixed in a 200 μL reservoir. […] The reaction mixture was directly used for quantifying the amount of the product by CE. […] The identification and quantitative assay of products were preformed by the addition of fluorescein (internal reference) to the reaction mixture.
The Km and Kcat values were determined using an approach previously described by Berezovski et al. (Electrophoresis, 23:3398-403, 2002). […]

In the case of `O=C1OC2(c3ccc(O)cc3Oc3cc(O[C@@H]4O[C@H](CO)[C@H](O)[C@H](O)[C@H]4O)ccc32)c2ccccc21` (stereo partly drawn) [fluorescein-mono-β-D-galactopyranoside, fluorescein mono-β-D-galactopyranoside], the “catalytic rate constant, kcat” value was found to be 0.6 s⁻¹. Further, the Km – broadly, the substrate concentration at which the rate is half of its maximum – (read-out: Michaelis constant, Km) is 0.9 µM.
